Assay results published in patent US20200129476A1, “PARP Inhibitor in Combination with a Glucocorticoid and/or Ascorbic Acid and/or a Protein Growth Factor for the Treatment of Impaired Wound Healing” (AKRIBES BIOMEDICAL GMBH, priority 2017, published 2020).
Entries after “also recorded” stand apart in the source; their conditions may differ.

Assays:
[1] = test system: cells; assay: Titration to reveal potential toxic effects on cells; assay type: cell-based; settings: titrated on cells
Procedure: Mifepristone, a glucocorticoid and progesterone receptor antagonist, was titrated to reveal potential toxic effects on cells and then used at the well tolerated concentration of 1 μM to counteract glucocorticoid- and progesterone-type compounds (dexamethasone, prednisolone, medroxyprogesterone, etc.). Protein growth factors (see list in Table 1) were dissolved according to the manufacturers' recommendations and used at final concentrations ranging from 0.02 to 1000 ng/ml.

[2] = test system: primary human dermal fibroblasts (HDF); assay: Primary human dermal fibroblast (HDF) proliferation assay (2D), with or without wound exudate; assay type: cell-based; settings: for HDF proliferation, PARP inhibitor alone: talazoparib 1 μM
Procedure: (§1) Primary human dermal fibroblasts (HDF) were purchased from CELLnTEC, Bern. They were routinely grown in Dulbecco's modified Eagle's medium (DMEM) containing 10% FCS, 2 mM glutamine, and 100 U/ml penicillin/100 μg/ml streptomycin. Media, antibiotics, and glutamine were bought from Lonza. The cells were used at passage 5-15. Cells were trypsinized and seeded at 5000 cells/well in 200 μl into the inner wells of 96-well plates. The outer wells were loaded with sterile water. The cells were allowed to adhere overnight and then incubated for 72 hours at 37° C. under the following conditions: graded compound concentrations or 20 ng/ml PDGF-BB (Tonbo Biosciences) in the absence or presence of different dilutions of sterile-filtered WE in medium. For control samples, 200p1 medium was added instead of specific stimuli. Alternatively, the cells were seeded into 384-well plates at 2500 cells/well directly together with test compounds or growth factors and WE or medium in a total volume of […].
(§2) At the end of the 72-hour incubation period, supernatants were removed for the determination of IL-1ß, and the cells were fixed with 4% paraformaldehyde (Morphisto) for 15 minutes at room temperature and washed 3 times with PBS. A control plate was fixed after the overnight adherence of the cells (day 1) to determine the starting cell number.
Total cellular protein was determined as a measure of cell number by staining the fixed cells with sulforhodamine B (SRB, Sigma). A 0.4% SRB solution in 1% acetic acid was added to the wells for 30 minutes. The wells were then washed with 1 acetic acid until the wash solution remained colorless. After drying, the dye was eluted with 10 mM Tris.HCl, pH8.5, and absorbance was measured either at 550 or 492 nm for lower and higher cell densities, respectively. The average absorbance of the sample representing the day 1 starting cell number (for 96-well plates) was subtracted from the absorbance values of the WE-treated cells.
All experiments were carried out in triplicate for each sample and concentration, and means±standard deviation (SD) were used for the evaluation of the experiment. Results are expressed as percentage of control values for unstimulated cells.
(§3) Low molecular weight compounds (see list in Table 1) were dissolved in DMSO (Bioreagent for cell culture, Sigma) at 10 mM or 100 mM and diluted at least 1:1000 in medium for cellular assays (final DMSO concentration ≤0.1%).
(§4) Cells were incubated with compounds for 72 hours in proliferation assays and up to 8 days for FDM assay (refreshed after 4 days). When compounds were tested for their effect on WE stimulation, the incubation of cells with compounds was started and ended simultaneously with WE-incubation.

[3] = test system: IL-1α; assay: Fibroblast-macrophage coculture with wound exudate: IL-1α; assay type: cell-based, human; settings: WE #78; veliparib 10 μM, talazoparib 0.1 μM
Procedure: CD14^+ monocytes, isolated from PBMC of healthy donors by magnetic bead separation were incubated either alone or in the presence of primary human dermal fibroblasts (CelINTec) or fibroblast-derived matrices (FDM). FDM had been generated from primary human dermal fibroblasts by a 3-week incubation with the growth supplements vitamin C or insulin and EGF (vitamin C: 2-phospho-L-ascorbic acid trisodium salt, 100 μg/ml; human EGF, 5 ng/ml; human insulin, 5 μg/ml). Alternatively, fibroblast monolayer cultures can be used as well. After 4 days to a week to allow for macrophage differentiation in the presence or absence of M-CSF (25 ng/ml), the cultures were stimulated overnight with graded concentrations of test compounds in the absence or presence of various dilutions of sterile-filtered WE. IFN-g (50 ng/ml), LPS (100 ng/ml) and IL-4 (25 ng/ml) or combinations thereof served as controls for M1 and M2 macrophage induction. For negative control samples, medium was added instead of specific stimuli. WE were added to the culture medium for overnight stimulation at dilutions ranging from 1:25 to 1:100.
Supernatants were harvested and frozen for cytokine determination by ELISA, and cells were harvested and subjected to FACS analysis, gating on the monocyte population. Geometric means or mean fluorescence intensities (MFI) were used to quantify surface marker expression. […]

[4] = test system: primary human dermal fibroblasts (HDF); assay: Fibroblast-derived matrix (FDM) formation assay (3D), with or without wound exudate; assay type: cell-based; settings: for fibroblast-derived matrix (FDM) formation: presence of WE #78 (FIG. 9)
Procedure: HDF cells were seeded at 5000 cells/well on day −3 into 96-well tissue culture plates (1250 cells/well for 384-well plates), which had been pre-coated for 1 hour at 37° C. with 0.2% gelatin solution (Sigma). When the cells reached confluence (=day 0), a matrix promoting supplement (vitamin C: 2-phospho-L-ascorbic acid trisodium salt, 100 μg/ml; Sigma) was added together with test samples containing PDGF-BB, TGF-ß1 or graded concentrations of compounds −/+WE as described for the HDF proliferation assay. After 4 days, medium was replaced by fresh vitamin C- and stimulus- as well as compound-containing medium, maintaining the conditions initiated on day 0. TGF-ß1 and PDGF-BB were included as positive controls to promote FDM formation and cell growth, respectively. After a total incubation time of 8 days, FDM production was measured in fixed cultures via SRB staining and evaluated as described above. In some cases, the experiment was stopped and evaluated already on day 4.
as §3, with “≤0.1%). Compounds were typically tested in half-logarithmic dilution series (1:3.33), starting at 10 μM or 100 μM as the highest compound concentration.” for “≤0.1%).”
as §4

[5] = test system: IL-1ß; assay: IL-1ß secretion by HDF in the presence of wound exudate (ELISA); assay type: cell-based, human; settings: FIG. 22; WE #43 and #78 used with veliparib
Procedure: as §1, §2
IL-1ß levels were determined with a commercial ELISA kit. The amount of IL-1ß contained in the wound exudate added to the cells was subtracted from the total IL-ß in the supernatants in order to determine the cytokine secreted by the cells.

SMILES | well tolerated concentration [1] | reversal of glucocorticoid effects on HDF proliferation ([2]; mifepristone as antagonist, WE present) | cell proliferation under wound exudate-induced inhibition ([2]; FIG. 22, WE #43 and #78 used with veliparib) | HDF proliferation, PARP inhibitor plus PDGF ([2]; PARP inhibitor dose series + PDGF 20 ng/ml, WE #78 (FIG. 18)) | fibroblast (HDF) proliferation ([2]; presence of WE #43) | fibroblast (HDF) proliferation ([2]; presence of WE #78 (diabetic patient)) | HDF proliferation ([2]; talazoparib 0.3 μM, WE #78 (FIG. 19)) | HDF proliferation, PARP inhibitor plus PDGF ([2]; veliparib 10 μM, talazoparib 1 μM + PDGF 20 ng/ml, WE #78 (FIG. 17B)) | HDF proliferation, PARP inhibitor alone ([2]; veliparib 10 μM, WE #78 (FIG. 17B)) | HDF proliferation, PARP inhibitor alone ([2]; veliparib 10 μM, absence of WE (FIG. 17A)) | IL-1α induced by wound exudate [3] | fibroblast-derived matrix (FDM) formation [4] | fibroblast-derived matrix (FDM) formation ([4]; listed as Talazoparib) | fibroblast-derived matrix (FDM/ECM) formation ([4]; presence of wound exudate, WE not specified (FIG. 6: microscopy)) | IL-1ß secretion induced by wound exudate [5]
CC#C[C@]1(O)CC[C@H]2[C@@H]3CCC4=CC(=O)CCC4=C3[C@@H](c3ccc(N(C)C)cc3)C[C@@]21C [mifepristone, Mifepristone] | 1 µM | reversible | – | – | – | – | – | – | – | – | – | – | – | – | –
Cn1ncnc1[C@H]1c2n[nH]c(=O)c3cc(F)cc(c23)N[C@@H]1c1ccc(F)cc1 [talazoparib] | – | – | enhanced cell proliferation | even further enhanced by the addition of PDGF | strongly beneficial effects | strongly beneficial effects; also recorded: dose-dependent increase of HDF proliferation | rescues the cells from the inhibitory effect of the WE; also recorded: rescued the cells from the inhibitory effect of the wound exudate | additively or synergistically enhanced by PDGF | induce proliferation | no or even an inhibitory effect on fibroblasts on their own | reduced | strong positive effect | most active of the PARP inhibitors tested in 3D culture | “cleaned up” WE-induced fibroblast matrix inhibition | reducing IL-1ß secretion
